According to patent US9675070B2 (BAYER CROPSCIENCE AG, priority 2013, dated 2017):

Legend:
[1] = system: greenhouse red spider mite (Tetranychus urticae), OP-resistant; test: Tetranychus urticae spray test, OP-resistant (TETRUR); assay type: in vivo; details: application rate 100 g/ha; bean leaf discs; after 6 days
Description: Tetranychus urticae—Spray Test, OP-Resistant (TETRUR)
(§1) Solvents: 78.0 parts by weight of acetone
(§2) • 1.5 parts by weight of dimethylformamide Emulsifier: alkylaryl polyglycol ether
(§3) To produce a suitable preparation of active compound, 1 part by weight of active compound is dissolved using the stated parts by weight of solvent and made up with water comprising an emulsifier concentration of 1000 ppm until the desired concentration is reached. To produce further test concentrations, the preparation is diluted with emulsifier-containing water.
Discs of bean leaves (Phaseolus vulgaris) which are infested by all stages of the greenhouse red spider mite (Tetranychus urticae) are sprayed with an active compound preparation of the desired concentration.
After 6 days, the efficacy in % is determined. 100% means that all of the spider mites have been killed; 0% means that none of the spider mites have been killed.

[2] = system: larvae of the mustard beetle (Phaedon cochleariae); test: Phaedon cochleariae spray test (PHAECO); assay type: in vivo; details: application rate 100 g/ha; Chinese cabbage leaf discs; after 7 days
Description: Phaedon cochleariae—Spray Test (PHAECO)
as §1, §2, §3
After 7 days, the efficacy in % is determined. 100% means that all of the beetle larvae have been killed; 0% means that none of the beetle larvae have been killed.

[3] = system: cattle ticks (Boophilus microplus) Parkhurst strain, SP-resistant; test: Boophilus microplus dip test (BOOPMI Dip); assay type: in vivo; details: application rate 100 ppm, assessed after 7 days
Description: Boophilus microplus—Dip Test (BOOPMI Dip)
Test animals: cattle ticks (Boophilus microplus) Parkhurst strain, SP-resistant
(§4) Solvent: dimethyl sulphoxide
10 mg of active compound are dissolved in 0.5 ml of dimethyl sulphoxide. To prepare a suitable formulation, the active compound solution is diluted with water to the concentration desired in each case.
This active compound preparation is pipetted into tubes. 8-10 adult engorged female cattle ticks (Boophilus microplus) are transferred into a further tube with holes. The tube is immersed into the active compound formulation, and all ticks are completely wetted. After the liquid has run out, the ticks are transferred on filter discs into plastic dishes and stored in a climate-controlled room.
(§5) The activity is assessed after 7 days by laying of fertile eggs. Eggs whose fertility is not visible from the outside are stored in a climate-controlled cabinet until the larvae hatch after about 42 days. An efficacy of 100% means that none of the ticks has laid any fertile eggs; 0% means that all eggs are fertile.

[4] = system: L1 larvae of the Australian sheep blowfly (Lucilia cuprina); test: Lucilia cuprina test (LUCICU); assay type: in vivo; details: application rate 100 ppm; minced horsemeat; after 2 days
Description: Lucilia cuprina Test (LUCICU) Solvent: dimethyl sulphoxide To produce a suitable preparation of active compound, 10 mg of active compound are mixed with 0.5 ml of dimethyl sulphoxide, and the concentrate is diluted with water to the desired concentration. About 20 L1 larvae of the Australian sheep blowfly (Lucilia cuprina) are transferred into a test vessel containing minced horsemeat and the active compound preparation of the desired concentration. After 2 days, the kill in % is determined. 100% means that all of the larvae have been killed; 0% means that none of the larvae have been killed.

[5] = system: adult cat fleas (Ctenocephalides felis); test: Ctenocephalides felis oral test (CTECFE); assay type: in vivo; details: application rate 100 ppm in citrated cattle blood; after 2 days
Description: Ctenocephalides felis-Oral Test ([…]) Solvent: dimethyl sulphoxide To produce a suitable preparation of active compound, 10 mg of active compound are mixed with 0.5 ml of dimethyl sulphoxide. Dilution with citrated cattle blood gives the desired concentration. About 20 unfed adult cat fleas (Ctenocephalides felis) are placed into a chamber which is closed at the top and bottom with gauze. A metal cylinder whose bottom end is closed with a parafilm is placed onto the chamber. The cylinder contains the blood/active ingredient preparation, which can be imbibed by the fleas through the parafilm membrane. After 2 days, the kill in % is determined. 100% means that all of the fleas have been killed; 0% means that none of the fleas have been killed.

[6] = system: Tick nymphs (Amblyomma hebraeum); test: Amblyomma hebaraeum test (AMBYHE), tick nymph immersion; assay type: in vivo; details: application rate 100 ppm; immersion one minute; after 42 days
Description: Amblyomma hebaraeum Test (AMBYHE) Solvent: dimethyl sulphoxide To produce a suitable preparation of active compound, 10 mg of active compound are mixed with 0.5 ml of dimethyl sulphoxide, and the concentrate is diluted with water to the desired concentration. Tick nymphs (Amblyomma hebraeum) are placed into perforated plastic beakers and immersed in the desired concentration for one minute. The ticks are transferred on filter paper into a Petri dish and stored in a climate-controlled cabinet. After 42 days, the kill in % is determined. 100% means that all of the ticks have been killed; 0% means that none of the ticks have been killed.

[7] = system: engorged adult female cattle ticks (Boophilus microplus); test: Boophilus microplus injection test (BOOPMI Inj); assay type: in vivo; details: application rate 20 μg/animal; injection into abdomen; assessed after 7 days
Description: Boophilus microplus Injection Test (BOOPMI Inj)
as §4
To produce a suitable preparation of active compound, 10 mg of active compound are mixed with 0.5 ml of solvent, and the concentrate is diluted with solvent to the desired concentration.
1 μl of the active compound solution is injected into the abdomen of 5 engorged adult female cattle ticks (Boophilus microplus). The animals are transferred into dishes and kept in a climate-controlled room.
as §5

[8] = system: adult houseflies (Musca domestica); test: Musca domestica test (MUSCDO); assay type: in vivo; details: application rate 100 ppm; after 2 days
Description: Musca domestica Test (MUSCDO) Solvents: dimethyl sulphoxide To produce a suitable preparation of active compound, 10 mg of active compound are mixed with 0.5 ml of dimethyl sulphoxide, and the concentrate is diluted with water to the desired concentration. Vessels containing a sponge treated with sugar solution and the active compound preparation of the desired concentration are populated with 10 adult houseflies (Musca domestica). After 2 days, the kill in % is determined. 100% means that all of the flies have been killed; 0% means that none of the flies have been killed.

[9] = log P determination by HPLC on reversed-phase column (C18), EEC Directive 79/831 Annex V.A8; assay type: physicochemical; details: method a): Agilent 1100 LC, Zorbax Eclipse Plus C18, acetonitrile/water with formic acid, gradient 10-95% in 4.25 min, 55° C.
Description: Agilent 1100 LC system; 50*4.6 Zorbax Eclipse Plus C18 1.8 micron; mobile phase A: acetonitrile (0.1% formic acid); mobile phase B: water (0.09% formic acid); linear gradient from 10% acetonitrile to 95% acetonitrile in 4.25 min, then 95% acetonitrile for a further 1.25 min; oven temperature 55° C.; flow rate: 2.0 ml/min. Mass detection is carried out via an Agilend MSD system.
^a)Unless indicated otherwise, the following method was used to determine the log P values and masses: The determination of the given log P values was carried out in accordance with EEC Directive 79/831 Annex V.A8 by HPLC (High Performance Liquid Chromatography) on a reversed-phase column (C18). Agilent 1100 LC system; 50*4.6 Zorbax Eclipse Plus C18 1.8 micron; mobile phase A: acetonitrile (0.1% formic acid); mobile phase B: water (0.09% formic acid); linear gradient from 10% acetonitrile to 95% acetonitrile in 4.25 min, then 95% acetonitrile for a further 1.25 min; oven temperature 55° C.; flow rate: 2.0 ml/min. Mass detection is carried out via an Agilend MSD system. ^b)Note for the alternative method for determining log P values and masses: The stated log P values were determined in accordance with EEC Directive 79/831 Annex V.A8 by HPLC (High Performance Liquid Chromatography) using a reversed-phase column (C18). Waters ACQUITY UPLC-MS system; 2.1*50 mm Zorbax Eclipse Plus C18 1.8 μm 600 bar; injection volume: 0.5 ul about 1000 ppm; mobile phase A: acetonitrile (0.1% formic acid); mobile phase B: water (0.085% formic acid); linear gradient from 10% acetonitrile to 95% acetonitrile in 1.5 min, then 95% acetonitrile for a further 0.5 min; oven temperature 60° C.; flow rate: 1.0 ml/min. Mass detection is carried out via a Waters SQD system.

[10] = system: caterpillars of the armyworm (Spodoptera frugiperda); test: Spodoptera frugiperda spray test (SPODFR); assay type: in vivo; details: application rate 100 g/ha; maize leaf discs; after 7 days
Description: Spodoptera frugiperda—Spray Test (SPODFR)
as §1, §2, §3
Leaf discs of maize (Zea mays) are sprayed with an active compound preparation of the desired concentration and, after drying, populated with caterpillars of the armyworm (Spodoptera frugiperda).
After 7 days, the efficacy in % is determined. 100% means that all of the caterpillars have been killed; 0% means that none of the caterpillars have been killed.

With `CC(=O)NCc1cccc(-c2cnn(-c3c(C(F)(F)F)c(C(F)(F)C(F)(F)F)nn3C)c2)c1` [Ic-16] the efficacy in % [1] was 90%, the efficacy in % [2] was 100% and the “efficacy (no laying of fertile eggs)” value [3] was 100%. The kill in % [4] was 100%, the kill in % [5] was 100% and the kill in % [6] was 100%. The “efficacy (no laying of fertile eggs)” value [7] was 100% and the kill in % [8] was 100%.
With `Cn1nc(C(F)(F)C(F)(F)F)c(C(F)(F)F)c1-n1cc(-c2cccc(CNC(=O)C3CC3)c2)cn1` [Ic-17] the efficacy in % [1] was 100%, the efficacy in % [2] was 100% and the “efficacy (no laying of fertile eggs)” value [3] was 100%. The kill in % [4] was 100%, the kill in % [5] was 100% and the kill in % [6] was 90%. For the same compound, the “efficacy (no laying of fertile eggs)” value [7] was 100% and the kill in % [8] was 100%.
`CCC(=O)NCc1cc(-c2cnn(-c3c(C(F)(F)F)c(C(F)(F)C(F)(F)F)nn3C)c2)ccc1F` [Ib-8, N-{2-fluoro-5-[2′-methyl-5′-(pentafluoroethyl)-4′-(trifluoromethyl)-2′H-1,3′-bipyrazol-4-yl]benzyl}propanamide] gave an efficacy in % [2] of 100%, a kill in % [4] of 100% and a kill in % [5] of 95%. For the same compound, the “efficacy (no laying of fertile eggs)” value [7] was 100% and the chromatographic logP [9] was 3.27.
With `CCC(=O)NCc1cc(-c2cn(-c3c(C(F)(F)F)c(C(F)(F)C(F)(F)F)nn3C)nn2)ccc1F` [Ig-5] the efficacy in % [2] was 100%, the “efficacy (no laying of fertile eggs)” value [3] was 100% and the kill in % [4] was 100%. The efficacy in % [10] was 100%, the kill in % [5] was 100% and the “efficacy (no laying of fertile eggs)” value [7] was 100%. The kill in % [8] was 100%.
`Cn1nc(C(F)(F)C(F)(F)F)c(C(F)(F)F)c1-n1cc(-c2ccc(F)c(CNC(=O)C3CC3)c2)cn1` [Ic-12] gave an efficacy in % [1] of 90%, an efficacy in % [2] of 100% and a kill in % [4] of 100%. For the same compound, the efficacy in % [10] was 100%, the kill in % [5] was 100% and the kill in % [6] was 100%. The “efficacy (no laying of fertile eggs)” value [7] was 100% and the kill in % [8] was 100%.
With `CC(=O)NCc1cc(-c2cnn(-c3c(C(F)(F)F)c(C(F)(F)C(F)(F)F)nn3C)c2)ccc1F` [Ic-4] the efficacy in % [1] was 100%, the efficacy in % [2] was 100% and the “efficacy (no laying of fertile eggs)” value [3] was 100%. The kill in % [4] was 100%, the efficacy in % [10] was 83% and the kill in % [5] was 100%. For the same compound, the kill in % [6] was 100%, the “efficacy (no laying of fertile eggs)” value [7] was 100% and the kill in % [8] was 100%.
In the case of `CC(=O)NCc1cc(-c2cn(-c3c(C(F)(F)F)c(C(F)(F)C(F)(F)F)nn3C)nn2)ccc1F` [Ig-1], the efficacy in % [1] is reported as 100%, the efficacy in % [2] is reported as 100% and the “efficacy (no laying of fertile eggs)” value [3] is reported as 80%. The kill in % [4] was 100%, the kill in % [5] was 100% and the “efficacy (no laying of fertile eggs)” value [7] was 100%. For the same compound, the kill in % [8] was 100%.
In the case of `CCC(=O)NCc1cc(-c2cnn(-c3c(C(F)(F)F)c(C(F)(F)C(F)(F)F)nn3C)c2)ccc1F` [Ic-2], the efficacy in % [1] is reported as 100%, the efficacy in % [2] is reported as 100% and the “efficacy (no laying of fertile eggs)” value [3] is reported as 100%. The kill in % [4] was 100%, the efficacy in % [10] was 100% and the kill in % [5] was 100%. The kill in % [6] was 100%, the “efficacy (no laying of fertile eggs)” value [7] was 100% and the kill in % [8] was 100%.
For `Cn1nc(C(F)(F)C(F)(F)F)c(C(F)(F)F)c1-n1cc(Br)cn1` [4-bromo-2′-methyl-5′-(pentafluoroethyl)-4′-(trifluoromethyl)-2′H-1,3′-bipyrazole], the chromatographic logP [9] was 4.17.
In the case of `Cn1nc(C(F)(F)C(F)(F)F)c(C(F)(F)F)c1-n1cnc(-c2cccc(CNC(=O)OC(C)(C)C)c2)c1` [Ib-1, tert-butyl (3-{1-[1-methyl-3-(pentafluoroethyl)-4-(trifluoromethyl)-1H-pyrazol-5-yl]-1H-imidazol-4-yl}benzyl)carbamate], the chromatographic logP [9] is reported as 4.21.
`CCC(=O)NCc1cccc(-c2cn(-c3c(C(F)(F)F)c(C(F)(F)C(F)(F)F)nn3C)cn2)c1` [Ib-5, N-(3-{1-[1-methyl-3-(pentafluoroethyl)-4-(trifluoromethyl)-1H-pyrazol-5-yl]-1H-imidazol-4-yl}benzyl)propanamide] gave a chromatographic logP [9] of 3.14.
`Cn1nc(C(F)(F)C(F)(F)F)c(C(F)(F)F)c1-n1cc(-c2ccc(F)c(C#N)c2)cn1` [2-fluoro-5-[2′-methyl-5′-(pentafluoroethyl)-4′-(trifluoromethyl)-2′H-1,3′-bipyrazol-4-yl]benzonitrile] showed a chromatographic logP [9] of 4.37.
In the case of `Cn1nc(C(F)(F)C(F)(F)F)c(C(F)(F)F)c1-n1cnc(I)c1` [5-(4-iodo-1H-imidazol-1-yl)-1-methyl-3-(pentafluoroethyl)-4-(trifluoromethyl)-1H-pyrazole], the chromatographic logP [9] is reported as 3.47.
